Experimental data from ChEMBL document CHEMBL3044688, “Degradation of the Herbicides Thiobencarb, Butachlor and Molinate by a Newly Isolated Aspergillus niger” (J Pestic Sci, 2004).

How the values were obtained:
Format in all cases: ADME, organism-based
[1] = tested on: Aspergillus niger; experiment: Drug degradation in Aspergillus niger van Tieghem grown on sucrose-containing Czapek-Dox medium at 100 ppm after 7 days; conditions: 168 h
[2] = tested on: Aspergillus niger; experiment: Drug degradation in Aspergillus niger van Tieghem grown on sucrose-containing Czapek-Dox medium at 20 ppm after 7 days; conditions: 168 h
[3] = tested on: Aspergillus niger; experiment: Drug degradation in Aspergillus niger van Tieghem at 20 ppm after 36 hr at 30 degC
[4] = tested on: Aspergillus niger; experiment: Drug degradation in Aspergillus niger van Tieghem grown on Czapek-Dox medium at 20 ppm after 36 hr at 30 degC in presence of 0.5 to 2 g/l NaNO3
[5] = tested on: Aspergillus niger; experiment: Drug degradation in Aspergillus niger van Tieghem grown on Czapek-Dox medium at 20 ppm after 36 hr at 30 degC in presence of 1 g/l NaNO3
[6] = tested on: Aspergillus niger; experiment: Drug degradation in Aspergillus niger van Tieghem grown on Czapek-Dox medium at 20 ppm after 36 hr at 30 degC in presence of 0.01 g/l NaNO3

CCNc1nc(NC(C)C)nc(SC)n1 [AMETRYNE]
Stability [1]: Stable

CCCCOCN(C(=O)CCl)c1c(CC)cccc1CC [BUTACHLOR]
Stability [2]: Unstable

CCSC(=O)N1C=CC=CC=C1 [S-ETHYLAZEPINE-1-CARBOTHIOATE]
Stability [1]: Unstable

CCN(CC)C(=O)SCc1ccc(Cl)cc1 [THIOBENCARB]
Stability [3]: Unstable
Stability [4]: Unstable
Stability [5]: Unstable
Stability [6]: Unstable
